Source: publication PMC6657216, “Defining the Contribution of CYP1A1 and CYP1A2 to Drug Metabolism Using Humanized CYP1A1/1A2 and Cyp1a1/Cyp1a2 Knockout Mice” (Drug Metabolism and Disposition, 2019)

Key:
[1] = tested on: Cyp1a/CYP1A enzymes; assay: TCDD treatment of mice: hepatic total P450, EROD and MROD induction; format: in vivo, mouse; conditions: for increase of total hepatic cytochrome P450: TCDD 10 µg/kg i.p., 48 hours
Procedure: Mice were given a single intraperitoneal dose of TCDD (10 µg/kg) or vehicle control (corn oil) and then euthanized 48 hours after the dosing using a rising concentration of CO2.
Microsomal fractions were prepared as previously described ([Henderson et al., 2019]). In brief, fresh liver samples were homogenized in ice-cold SET(Sucrose-EDTA-Tris) buffer (0.25 M sucrose, 5 mM EDTA, 20 mM Tris-HCL, pH 7.4; 9 ml buffer/g liver) and centrifuged at 2000 rpm (Sorvall RTH-250, 10 minutes, 4°C). The supernatant was centrifuged (12,000 rpm, Sorvall SS-34 rotor, 20 minutes, 4°C), the resulting supernatant was centrifuged (∼30,000 rpm, Sorvall TFT-45.6, 90 minutes, 4°C) (ThermoFisher Scientific, UK), and microsomal pellets were resuspended in ice-cold SET buffer and stored at −70°C.
Microsomal protein concentration fractions were measured using a modification of a previously described method ([Lowry et al., 1951]) and total hepatic microsomal P450 as previously described ([Omura and Sato, 1964]).
A mixture of ER (0.93 μM) or MR (0.46 μM) and liver microsomes (0.004–0.27 mg protein/ml) in 100 mM potassium phosphate buffer (pH 7.4) supplemented with MgCl2 (3.3 mM) was incubated at 37°C for 5 minutes before the reaction was initiated by injection of NADPH (final concentration, 1.2 mM). […] Activities in duodenum, ileum, jejunum, colon, lung, kidney, spleen, heart, brain, and testis microsomes were measured as described earlier except for the following adjustments: MR concentration was 1 μM, concentration of total microsomal protein in the reaction was in the range of 0.07–0.43 mg/ml, and amount of resorufin added to calculate the reaction product concentration was 40 pmol.

[2] = target: T1, recombinant human CYP1A1 (Homo sapiens, UniProt P04798); assay: EROD by recombinant human CYP1A1 with and without quinidine
T1 sequence (P04798 1-512): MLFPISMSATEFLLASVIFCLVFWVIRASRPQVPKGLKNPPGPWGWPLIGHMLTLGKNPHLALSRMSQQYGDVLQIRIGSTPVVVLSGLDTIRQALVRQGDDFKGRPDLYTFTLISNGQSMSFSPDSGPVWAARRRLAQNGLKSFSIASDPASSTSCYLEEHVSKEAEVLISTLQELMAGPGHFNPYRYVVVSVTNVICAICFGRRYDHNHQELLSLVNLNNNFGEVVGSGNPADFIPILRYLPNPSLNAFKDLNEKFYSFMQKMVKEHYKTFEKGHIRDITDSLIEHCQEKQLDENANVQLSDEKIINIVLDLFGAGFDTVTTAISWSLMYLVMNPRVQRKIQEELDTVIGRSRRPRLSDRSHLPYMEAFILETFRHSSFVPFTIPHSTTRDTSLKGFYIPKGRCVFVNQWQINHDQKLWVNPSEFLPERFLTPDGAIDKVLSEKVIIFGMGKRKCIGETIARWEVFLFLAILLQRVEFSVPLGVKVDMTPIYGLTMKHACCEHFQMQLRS
Procedure: (§1) Where needed, total protein concentration in the reaction mixtures was adjusted using Control Bactosomes (Cypex), so all reactions (including those with the recombinant cytochrome P450s) were carried out at a total protein concentration of 0.25 mg protein/ml. […] Slopes of the linear part of the kinetic curves were calculated using Ascent Software version 2.4.1 (Labsystems). For each well with the reaction medium, there was a control well containing the reaction mixture with resorufin (40 pmol). Before addition of NADPH to the reaction wells, fluorescence was recorded both from the reaction and from the control wells. The average fluorescence was calculated, and the difference between wells with and without resorufin was used for the conversion of the relative fluorescence units to the picomoles of the reaction product.

[3] = target: T1, recombinant human CYP1A1; assay: biochemical
Procedure: (§2) Slopes of the linear part of the kinetic curves were calculated using Ascent Software version 2.4.1 (Labsystems).
as §1

[4] = tested on: EROD activity, non-Cyp1a component of the liver microsomes; assay: in vitro; conditions: mouse, pH 7.4
Procedure: (§3) Protein enzyme/concentrations were 3.46 pmol/ml for recombinant human CYP1A1, 10.8 pmol/ml for recombinant human CYP1A2, 0.05 mg protein/ml for liver microsomes from TCDD-treated hCYP1A1/1A2 mice, and 0.25 mg protein/ml for liver microsomes from TCDD-treated Cyp1 KO mice and vehicle-treated hCYP1A1/1A2 mice. Where needed, total protein concentration in the reaction mixtures was adjusted using Control Bactosomes (Cypex), so all reactions (including those with the recombinant cytochrome P450s) were carried out at a total protein concentration of 0.25 mg protein/ml. Generation of fluorescent product was registered in a kinetic mode (excitation filter, 530 nm; emission filter, 584 nm). Slopes of the linear part of the kinetic curves were calculated using Ascent Software version 2.4.1 (Labsystems). For each well with the reaction medium, there was a control well containing the reaction mixture with resorufin (40 pmol). Before addition of NADPH to the reaction wells, fluorescence was recorded both from the reaction and from the control wells. The average fluorescence was calculated, and the difference between wells with and without resorufin was used for the conversion of the relative fluorescence units to the picomoles of the reaction product.

[5] = target: T2, recombinant human CYP1A2 (Homo sapiens, UniProt P05177); assay: MROD by recombinant human CYP1A2, inhibition by quinidine; conditions: quinidine 0, 30, 200 μM
T2 sequence (P05177 1-516): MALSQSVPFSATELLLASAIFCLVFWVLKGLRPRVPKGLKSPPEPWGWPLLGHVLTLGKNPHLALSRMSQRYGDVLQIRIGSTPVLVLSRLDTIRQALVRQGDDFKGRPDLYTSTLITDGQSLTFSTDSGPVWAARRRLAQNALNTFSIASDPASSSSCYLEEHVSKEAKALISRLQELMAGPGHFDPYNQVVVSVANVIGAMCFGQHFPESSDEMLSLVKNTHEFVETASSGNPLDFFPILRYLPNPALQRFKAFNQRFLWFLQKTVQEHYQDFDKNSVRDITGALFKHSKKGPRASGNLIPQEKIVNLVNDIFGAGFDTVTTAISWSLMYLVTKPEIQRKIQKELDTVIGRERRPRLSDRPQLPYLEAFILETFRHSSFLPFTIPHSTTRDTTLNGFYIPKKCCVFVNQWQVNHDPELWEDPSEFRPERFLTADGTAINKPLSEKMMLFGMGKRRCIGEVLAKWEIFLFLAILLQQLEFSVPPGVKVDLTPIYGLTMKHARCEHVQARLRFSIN
Procedure: as §2, §1

[6] = target: T2, recombinant human CYP1A2; conditions: quinidine 0, 30, 200 μM
Procedure: as §3

[7] = tested on: MROD activity, non-Cyp1a component of the liver microsomes; assay: in vitro; conditions: mouse, pH 7.4
Procedure: as §3

[8] = target: T1, recombinant human CYP1A1; assay: MROD by recombinant human CYP1A1, inhibition by quinidine; conditions: rCYP1A1
Procedure: as §2, §1

[9] = tested on: liver microsomes from vehicle-treated hCYP1A1/1A2 mice; assay: MROD in liver microsomes from vehicle-treated hCYP1A1/1A2 mice with quinidine; format: biochemical, mouse; conditions: 200 μM quinidine
Procedure: as §3

[10] = tested on: EROD activity of liver microsomes from vehicle-treated hCYP1A1/1A2 mice; assay: EROD in liver microsomes from vehicle-treated hCYP1A1/1A2 mice with quinidine; format: biochemical; conditions: hCYP1A1/1A2 humanized, mouse, pH 7.4
Procedure: as §3

[11] = Microsomal stability in mouse liver microsomes (WT, Cyp1a KO, hCYP1A1/1A2)
Procedure: The reaction was started by addition of 200 μl of NADPH to the remaining mixture of ramelteon with microsomes, and 100-μl aliquots were taken at 1, 2, 5, 10, 15, 20, and 30 minutes after the reaction start; mixed with an equal volume of ice-cold methanol containing the internal standard; incubated on ice for at least 20 minutes; and centrifuged for 15 minutes at 16,000 rcf and +4°C on Centrifuge 5415 R (Eppendorf, Hamburg, Germany). Control incubations were carried out without the cofactor or microsomes. The concentration of ramelteon in the supernatant was measured by high-performance liquid chromatography–tandem mass spectrometry (MS/MS). Chromatographic separation was performed on a Prodigy Phenyl-3 column (5 μm, 50 × 2.0 mm; Phenomenex) using an injection volume of 10 μl and a run time of 7 minutes. Mobile phase consisted of 0.1% solutions of formic acid in water (solvent A) and acetonitrile (solvent B). For elution, a linear gradient from 20% to 60% of solvent B in 4 minutes was used, followed by 3-minute equilibration at 20% B. The multiple reaction monitoring parameters for ramelteon and tacrine were 260.28, 199.2 (precursor ion) and 204.21, 171.11 (product ion), respectively. The concentrations of ramelteon were calculated from the calibration curve.

[12] = hCYP1A1/1A2 mice, liver microsomes

Compound: Clc1cc2c(cc1Cl)Oc1cc(Cl)c(Cl)cc1O2 [TCDD, 2,3,7,8-tetrachlorodibenzo-p-dioxin]
- increase in MROD activity ([1]; Cyp1a KO line, liver microsomes): 4.6 fold
- increase in EROD activity relative to untreated animals ([1]; Cyp1a KO liver): 3 fold
- change in total P450 on TCDD treatment ([1]; Cyp1a KO mice): no change
- concentration of hepatic CYP1A1 estimated from EROD Vmax/kcat ([1]; TCDD-treated hCYP1A1/1A2 mice): 59 pmol/mg microsomal protein
- CYP1A enzymes as share of total hepatic P450 content after TCDD ([1]; WT mice): 58%
- increase of total hepatic cytochrome P450 ([1]; WT mice): 2.37 fold
- increase in EROD activity relative to untreated animals ([1]; WT mice, liver microsomes): ~114 fold
- increase in MROD activity ([1]; WT mice, liver microsomes): 44 fold
- total hepatic cytochrome P450 after TCDD ([1]; WT mice, liver microsomes): 840 pmol/mg protein
- CYP1A enzymes as share of total hepatic P450 content after TCDD ([1]; hCYP1A1/1A2 mice): 46%
- increase of total hepatic cytochrome P450 ([1]; hCYP1A1/1A2 mice): 1.84 fold
- increase in EROD activity relative to untreated animals [1, 12]: 39 fold
- increase in MROD activity [1, 12]: 31 fold
- total hepatic cytochrome P450 after TCDD [1, 12]: 632 pmol/mg protein

Compound: C=C[C@H]1C[N@@]2CC[C@H]1C[C@@H]2[C@@H](O)c1ccnc2ccc(OC)cc12 [quinidine]
- Ki [2]: 3.3 ± 0.35 µM
- Quinidine Inhibition Type ([2]; EROD, rCYP1A1): Mixed
- α ([2]; EROD, rCYP1A1, effect of inhibitor binding on substrate binding): 31 ± 8
- IC50 [3]: 5.8 µM
- Ki [3]: 2.2 ± 0.18 µM
- Ki ([4]; Cyp1a KO): > 200 µM
- Ki [4]: 422 ± 18 µM
- inhibition of MROD activity catalyzed by CYP1A2 [5]: did not inhibit
- inhibition of EROD activity catalyzed by CYP1A2 [6]: did not inhibit
- Ki ([7]; Cyp1a KO): > 200 µM
- Ki [7]: 272 ± 28 µM
- Quinidine Inhibition Type [8]: Competitive
- effect on MROD [9]: not affected
- inhibition at 200 μM [10]: ~20%

Compound: Nc1c2c(nc3ccccc13)CCCC2 [tacrine]
- fraction metabolized by Cyp1a2 ([11]; WT mice liver microsomes, eqs. 15 and 16): ~0.68
- fraction metabolized by CYP1A2 ([11]; hCYP1A1/1A2, mouse, microsomes, 1 µM, pH 7.4): ~0.60
